Here are results for ten molecules from patent publication US9533977B2, “Oxazolidinone derivative as CETP inhibitor, its preparation method, and pharmaceutical composition comprising the same” (DONG-A ST CO., LTD., priority 2013, dated 2017).

For this assay, the target named is T1, CETP (Homo sapiens, UniProt P11597).
T1 construct: from tissue; host or cells: human plasma from healthy men
T1 sequence (P11597 18-493): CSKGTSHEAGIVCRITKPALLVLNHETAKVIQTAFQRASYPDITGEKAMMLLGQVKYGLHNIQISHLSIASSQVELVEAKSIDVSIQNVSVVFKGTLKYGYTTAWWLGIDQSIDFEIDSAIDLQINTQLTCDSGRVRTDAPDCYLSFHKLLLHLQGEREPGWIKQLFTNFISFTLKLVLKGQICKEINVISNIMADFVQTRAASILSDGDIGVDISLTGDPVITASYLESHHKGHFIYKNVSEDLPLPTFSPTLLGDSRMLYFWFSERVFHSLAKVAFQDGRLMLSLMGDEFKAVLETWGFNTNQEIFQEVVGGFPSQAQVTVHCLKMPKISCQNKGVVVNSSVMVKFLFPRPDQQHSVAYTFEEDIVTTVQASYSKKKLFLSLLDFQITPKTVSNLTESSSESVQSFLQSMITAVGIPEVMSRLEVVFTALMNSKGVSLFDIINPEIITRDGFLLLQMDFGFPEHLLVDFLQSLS
The assay is described as follows: Inhibitory activity against CETP in human plasma (Roar CETP activity kit, fluorescence). The conditions noted are these: plasma from healthy men diluted 1:10 in assay buffer, 37° C., 3 hrs, fluorescence 465/535 nm; read-out: IC50, Inhibition of CETP Activity in Human Plasma. Format: biochemical. Summed up: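 Healthy male human plasma, diluted 1:10, incubated 3 hrs at 37° C with donor/acceptor fluorescent substrates and compound (0.01–10000 nM, DMSO). Fluorescence at ex 465/em 535 nm, background-corrected against no-plasma and no-compound wells; IC50 from sigmoidal fit.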

For the molecule `CCN(c1ncc(-c2ccsc2C#N)cc1CN1C(=O)O[C@@H](c2cc(C(F)(F)F)cc(C(F)(F)F)c2)[C@@H]1C)C1CCCCC1` [Example 82, 3-{5-({(4S,5S)-5-[3,5-bis(trifluoromethyl)phenyl]-4-methyl-2-oxo-oxazolidin-3-yl}methyl)-6-[(cyclohexyl)(ethyl)amino]pyridin-3-yl}-thiophene-2-carbonitrile], the IC50 came to 246 nM.

On to “(4S,5R)-5-[3,5-bis(trifluoromethyl)phenyl]-4-methyl-3-({[2-(ethyl)(cyclohexyl)amino]-5-(2,4-dimethyl-thiazol-5-yl)pyridin-3-yl}methyl)-oxazolidin-2-one [Example 84]”, for which the IC50 was found to be 29.7 nM. As for `CCN(c1ncc(C#N)cc1CN1C(=O)O[C@H](c2cc(C(F)(F)F)cc(C(F)(F)F)c2)[C@@H]1C)C1CCCCC1` [Example 54], the IC50 turned out to be 19 nM. Regarding “(4S,5R)-5-[3,5-bis(trifluoromethyl)phenyl]-4-methyl-3-({[2-(ethyl)(cyclohexyl)amino]-5-(1,3-dimethyl-1H-pyrazol-4-yl)pyridin-3-yl}methyl)-oxazolidin-2-one [Example 69]”, the IC50 worked out at 13.4 nM. For the molecule `CCN(c1ncc(C(F)(F)F)cc1CN1C(=O)O[C@H](c2cc(C(F)(F)F)cc(C(F)(F)F)c2)[C@@H]1C)C1CCCCC1` [Example 53, (4S,5R)-5-[3,5-bis(trifluoromethyl)phenyl]-4-methyl-3-({[2-(ethyl)(cyclohexyl)amino]-5-(trifluoromethyl)pyridin-3-yl}methyl)-oxazolidin-2-one], the IC50 is 5.2 nM. The figure for `CCN(c1ncc(C(F)(F)F)cc1CN1C(=O)O[C@H](c2cc(C(F)(F)F)cc(C(F)(F)F)c2)[C@@H]1C)C1CCOC1` (stereo partly drawn) [Example 2, (4S,5R)-5-[3,5-bis(trifluoromethyl)phenyl]-4-methyl-3-{(2-[ethyl(tetrahydrofuran-3-yl)amino]-5-(trifluoromethyl)pyridin-3-yl)methyl}-oxazolidin-2-one] is 143 nM; for `CCN(c1ncc(N2CCCC2)cc1CN1C(=O)O[C@H](c2cc(C(F)(F)F)cc(C(F)(F)F)c2)[C@@H]1C)C1CCOCC1` [Example 41, (4S,5R)-5-[3,5-bis(trifluoromethyl)phenyl]-4-methyl-3-({[2-(ethyl)(tetrahydro-2H-pyran-4-yl)amino]-5-(pyrrolidin-1-yl)pyridin-3-yl}methyl)-oxazolidin-2-one] it is 2.4 nM; for `CCN(c1ncc(C(F)(F)F)cc1CN1C(=O)O[C@H](c2cc(C(F)(F)F)cc(C(F)(F)F)c2)[C@@H]1C)C1CCN(CC(=O)O)CC1` [Example 39, 2-(4-{[3-({(4S,5R)-5-[3,5-bis(trifluoromethyl)phenyl]-4-methyl-2-oxo-oxazolidin-3-yl}methyl)-5-(trifluoromethyl)pyridin-2-yl](ethyl)amino}piperidin-1-yl)acetic acid] it is 492 nM. Take `CCN(c1ncc(C(F)(F)F)cc1CN1C(=O)O[C@H](c2cc(C(F)(F)F)cc(C(F)(F)F)c2)[C@@H]1C)C1CCN(C(=O)N(C)C)CC1` [Example 37, methyl 4-{[3-({(4S,5R)-5-[3,5-bis(trifluoromethyl)phenyl]-4-methyl-2-oxo-oxazolidin-3-yl}methyl)-5-(trifluoromethyl)pyridin-2-yl](ethyl)amino}-N,N-dimethylpiperidine-1-carboxamide]: the IC50 worked out at 498 nM. Consider `CCN(c1ncc(-c2cscn2)cc1CN1C(=O)O[C@H](c2cc(C(F)(F)F)cc(C(F)(F)F)c2)[C@@H]1C)C1CCCCC1` [Example 81, (4S,5R)-5-[3,5-bis(trifluoromethyl)phenyl]-4-methyl-3-({[2-(ethyl)(cyclohexyl)amino]-5-(thiazol-4-yl)pyridin-3-yl}methyl)-oxazolidin-2-one], for which the half-maximal inhibitory concentration (IC50) turned out to be 26.5 nM.

The IC50 is the point on the concentration scale where inhibition reaches its midpoint.
